{"source": "patent US6916471B2", "about": "“Red blood cells loaded with S-nitrosothiol and uses therefor” (Duke University, priority 1995, dated 2005)", "key": {"rabbit aortic ring [1]": {"system": "rabbit aortic ring", "assay": "Rabbit aortic ring bioassay of CYSNO-treated blood with or without glutathione", "conditions": "100 μM", "method": "NO-loaded red blood cells were produced by incubating whole human blood in a solution comprising S-nitrosocysteine (CYSNO) at a molar ratio of 1:100 CYSNO:hemoglobin for 5 minutes at room temperature. The bioactivity of the treated blood was tested in a rabbit aortic ring bioassay, in the presence (+GSH) or absence (−GSH) of 100 μM glutathione."}, "Sprague-Dawley rat": {"system": "Sprague-Dawley rat", "assay": "Mean arterial pressure after femoral vein injection of loaded red blood cells", "assay_type": "in vivo", "conditions": "50 mg/kg", "description": "Systemic administration of cell-free Hb results in hypertensive responses which have been attributed to NO scavenging by the heme (Vogel, W. M., et al., Am. J. Physiol. 251:H413-H420 (1986); Olsen, S. B., et al., Circulation 93:329-332 (1996)). To determine if SNO-Hb is free of this adverse affect, and to explore if in vitro mechanisms of NO release extend to the in vivo circumstance, we compared responses to Hb and SNO-Hb infused as a bolus into the femoral vein of anesthetized rats. […] Thus, the profiles of these compounds in vivo closely resemble those seen in vitro (FIG. 4A). […] These changes in mean blood pressure of ˜10% are on the order of those that differentiate normotension from hypertension in man, and in the therapeutic range of some antihypertensive regimens. […] The bioactivity of SNO-Hb in blood, where S—NO/heme stoichiometries approach 1:50,000, is a dramatic illustration of the resistence of this NO-related activity to Hb(Fe) inactivation. […]\nRats were anesthetized by intraperitoneal injection of pentobarbital and the femoral arteries and veins accessed by local cut down. The artery was then cannulated and the blood pressure monitored continuously using a Viggo Spectramed pressure transducer attached to a Gould recorder. […]"}, "[2]": {"assay": "Endogenous SNO-Hb and Hb(FeII)NO in blood by photolysis-chemiluminescence", "assay_type": "in vivo, rat", "conditions": "45 minutes after infusion, 50 mg/kg", "description": "To determine if SNO-Hb is naturally occuring in the blood, and if so, its relationship to the O2 transport capacity and nitrosylated-heme content of red cells, we developed an analytical approach to assay the S-nitrosothiol and nitrosyl-heme content of erythrocytes (Table 2). […] Hb was then purified from red cells and assayed for RSNO and (FeII)NO content. Arterial blood contained significant levels of SNO-Hb, whereas levels were virtually undetectable in venous blood (Table 2). […] The arterial-venous distribution seen for SNO-Hb was reversed in the case of Hb(FeII)NO, which was detected in higher concentrations in partially deoxygenated (venous) erythrocytes (Table 2). […] However, levels of Hb(FeII)NO in vivo are typically too low to be detected (by EPR) and SNO-Hb is EPR-silent (i.e. it is not paramagnetic). Thus, photolysis-chemiluminesence represents an important technological advance, as it is the first methodology capable of making quantitative and functional assessments of NO binding to Hb under normal physiological conditions.\nBlood was obtained from the left ventricle (arterial) and jugular vein (venous) of anesthetized Sprague-Dawley rats. […] In 24 rats, Hb samples were divided in two aliquots which were then treated or not treated with 10-fold excess HgCl2 over protein concentration as measured by the method of Bradford. […]"}, "rabbit aortic ring [3]": {"system": "rabbit aortic ring", "assay": "CysNOEE-treated human blood, rabbit aortic ring bioassay", "conditions": "CysNOEE:heme 1:100 to 10:1; 21% and 1% oxygen", "method": "S-nitrosocysteine ethyl ester (CysNOEE) was added to human whole blood to interact with the red blood cells. CysNOEE:Heme (see FIG. 22) is the molar ratio of CysNOEE to heme in hemoglobin contained in red blood cells, for CysNOEE incubated with blood for 5 minutes at room temperature. After these incubations at different CysNOEE:heme ratios (1:100, 1:10, 1:1 and 10:1; see FIG. 22), red blood cell membranes were isolated by lysis and centrifugation, and S-nitrosothiol (SNO) content of the isolated membranes was determined by photolysis chemiluminescence assay. The concentrations of SNO in the red blood cell membranes were plotted in FIG. 22 as membrane SNO. Bioactivity of red blood cells—from release of biologically active NO—was determined in a rabbit aortic ring bioassay under two different concentrations of oxygen, and the results are plotted in FIG. 22 as 21% oxygen, vasoactivity, and 1% oxygen, vasoactivity."}, "[4]": {"system": "patient with primary pulmonary hypertension", "assay": "Inhaled ethyl nitrite in patients with primary pulmonary hypertension, red blood cell NO", "assay_type": "in vivo, human", "conditions": "PPH patients", "method": "A patient with primary pulmonary hypertension, with blood having starting values for SNO-hemoglobin, iron nitrosylhemoglobin and total NO/hemoglobin molar ratio as shown in the left bar of FIG. 15, was given an NO-donating drug by inhalation. Ethyl nitrite was diluted in ethanol. Oxygen carrier gas was passed though the ethyl nitrite solution and delivered to the patient at 10 liters/min. After 10 minutes, blood was withdrawn and analyzed by photolysis chemoluminescence. Results are shown in the right bar of FIG. 15, for the patient's blood after treatment. SNO-Hb and total Hb-bound NO levels were depressed in the patient relative to normal controls, but rose during inhalation of ethyl nitrite gas. The experiment was repeated for other patients (n=5)."}, "rabbit aortic ring [5]": {"system": "rabbit aortic ring", "assay": "Rabbit aortic ring perfused with blood of PPH patient after ethyl nitrite", "conditions": "1% oxygen", "description": "The downward deflection on the plot indicates a dilation of the blood vessel, which for the “NO” blood, occurred for approximately 30 seconds."}}}
{"smiles": "N[C@@H](CCC(=O)N[C@@H](CS)C(=O)NCC(=O)O)C(=O)O", "note": "[Glutathione, glutathione]", "values": [{"measurement": "effect on red blood cell-mediated vasodilation", "setting": "rabbit aortic ring [1]", "value": "potentiates the bioactivity of red blood cell-mediated vasodilation"}]}
{"smiles": "CNC(=N)NCCC[C@H](N)C(=O)O", "note": "[L-NMMA, N^G-monomethyl-L-arginine]", "values": [{"measurement": "increase in blood pressure", "setting": "Sprague-Dawley rat", "value": "about 20 mm Hg"}, {"measurement": "depletion of SNO-Hb", "setting": "[2]", "value": 82, "unit": "%"}, {"measurement": "depletion of total Hb-NO", "setting": "[2]", "value": "50±18", "unit": "%"}]}
{"smiles": "CCOC(=O)[C@@H](N)CSN=O", "note": "[S-nitrosocysteine ethyl ester]", "values": [{"measurement": "vasoactivity of treated red blood cells", "setting": "rabbit aortic ring [3]", "value": "relaxes blood vessels, most effectively under ischemic conditions"}]}
{"smiles": "CCON=O", "note": "[ethyl nitrite]", "values": [{"measurement": "increase in SNO-Hb in blood", "setting": "[4]; inhaled for 10 minutes, n=5", "value": "statistically significant"}, {"measurement": "levels of iron nitrosylhemoglobin before and after treatment", "setting": "[4]; inhaled for 10 minutes, n=5", "value": "no statistical difference"}, {"measurement": "pulmonary vascular resistance and systemic oxygenation", "setting": "[4]; inhaled", "value": "decreases in pulmonary vascular resistance and improved systemic oxygenation"}, {"measurement": "duration of dilation of aortic ring by blood of treated patient", "setting": "rabbit aortic ring [5]", "value": "approximately 30 seconds"}]}
